Biological target: human PAD4 (Homo sapiens (Human), UniProt Q9UM07)
Assay: In Vitro PAD4 BAEE Biochemical Assay
Conditions: geometric mean of multiple experiments
In short: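 Recombinant human PAD4 (His-SUMO tag removed, E. coli-expressed), 5 nM, preincubated with compound and 2 mM CaCl2 30 min at 25 °C in MOPS pH 7.6 with DTT; 3 mM BAEE added for 2 h at 25 °C, EDTA stop. Released ammonia detected by o-phthalaldehyde/DTT fluorescence (ex 405, em 535 nm).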

[1] = human PAD4, BAEE substrate, 5 nM PAD4, 2 mM calcium chloride, 3 mM BAEE
[2] = recombinant PAD4 5 nM, 2 mM calcium chloride, 3 mM BAEE substrate

Sequence of human PAD4 (Q9UM07 2-663): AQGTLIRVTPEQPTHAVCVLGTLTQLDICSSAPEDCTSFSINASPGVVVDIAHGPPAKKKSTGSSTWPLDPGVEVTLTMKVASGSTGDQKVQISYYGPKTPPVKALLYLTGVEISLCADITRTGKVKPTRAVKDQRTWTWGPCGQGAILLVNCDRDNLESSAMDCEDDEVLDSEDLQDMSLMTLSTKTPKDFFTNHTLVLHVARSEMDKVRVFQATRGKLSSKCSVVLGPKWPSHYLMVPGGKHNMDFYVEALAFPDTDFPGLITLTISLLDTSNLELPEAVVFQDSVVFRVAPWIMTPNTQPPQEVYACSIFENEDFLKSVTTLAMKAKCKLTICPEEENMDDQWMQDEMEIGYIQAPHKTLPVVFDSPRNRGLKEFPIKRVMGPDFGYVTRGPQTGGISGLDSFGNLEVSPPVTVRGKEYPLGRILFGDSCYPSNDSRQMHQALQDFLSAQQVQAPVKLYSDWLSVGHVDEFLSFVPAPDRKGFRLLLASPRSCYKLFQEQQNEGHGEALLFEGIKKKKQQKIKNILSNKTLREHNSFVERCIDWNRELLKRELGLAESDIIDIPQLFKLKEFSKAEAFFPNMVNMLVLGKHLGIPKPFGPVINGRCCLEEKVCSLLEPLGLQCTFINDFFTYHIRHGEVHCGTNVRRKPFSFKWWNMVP

IC50 [1] [nM]	IC50 [2] [nM]	Structure (SMILES)
90.8		COc1cc(C(=O)N2C[C@H](N)CCN2C)cc2nc(-c3cc4ccc([C@@H](C)NC(=O)c5cccnc5C)nc4n3CC3CC3)n(C)c12 [Example 177, N-((R)-1-(2-(5-((R)-5-amino-2-methylhexahydropyridazine-1-carbonyl)-7-methoxy-1-methyl-1H-benzo[d]imidazol-2-yl)-1-(cyclopropylmethyl)-1H-pyrrolo[2,3-b]pyridin-6-yl)ethyl)-2-methylnicotinamide]
	174	COc1cc(C(=O)N2C[C@H](N)[C@@H]3CC[C@H]2C3)cc2nc(-c3cc4ccc([C@@H](C)NC(=O)C5(C(F)(F)F)CC5)nc4n3CC3CC3)n(C)c12 [Example 289, N-((R)-1-(2-(5-((1S,4R,5R)-4-amino-2-azabicyclo[3.2.1]octane-2-carbonyl)-7-methoxy-1-methyl-1H-benzo[d]imidazol-2-yl)-1-(cyclopropylmethyl)-1H-pyrrolo[2,3-b]pyridin-6-yl)ethyl)-1-(trifluoromethyl) cyclopropane-1-carboxamide]
82.4		COc1cc(C(=O)N2C[C@H](N)CCN2C)cc2nc(-c3cc4ccc([C@@H](C)NC(=O)C5(C(F)F)CC5)nc4n3CC3CC3)n(C)c12 [Example 191, N-((R)-1-(2-(5-((R)-5-amino-2-methylhexahydropyridazine-1-carbonyl)-7-methoxy-1-methyl-1H-benzo[d]imidazol-2-yl)-1-(cyclopropylmethyl)-1H-pyrrolo[2,3-b]pyridin-6-yl)ethyl)-1-(difluoromethyl)cyclopropane-1-carboxamide]
37.2		COc1cc(C(=O)N2CCC[C@@H](N)C2)cc2nc(-c3cc4ccc([C@@H](C)NC(=O)c5ccccc5)cc4n3CC3CC3)n(C)c12 [Example 137, N-((R)-1-(2-(5-((R)-3-aminopiperidine-1-carbonyl)-7-methoxy-1-methyl-1H-benzo[d]imidazol-2-yl)-1-(cyclopropylmethyl)-1H-indol-6-yl)ethyl)benzamide]
	129	COc1cc(C(=O)N2C[C@H](N)[C@@H]3CC[C@H]2C3)cc2nc(-c3cc4ccc([C@@H](C)NC(=O)C(C)(C)CC(F)(F)F)nc4n3CC3CC3)n(C)c12 [Example 329, N-((R)-1-(2-(5-((1S,4R,5R)-4-amino-2-azabicyclo[3.2.1]octane-2-carbonyl)-7-methoxy-1-methyl-1H-benzo[d]imidazol-2-yl)-1-(cyclopropylmethyl)-1H-pyrrolo[2,3-b]pyridin-6-yl)ethyl)-4,4,4-trifluoro-2,2-dimethylbutanamide]
687		COc1cc(C(=O)N2C[C@H](N)CC[C@@H]2C)cc2nc(-c3cc4ccc(-c5cccnc5N5CCCC5)nc4n3CC3CC3)n(C)c12 [Example 263, ((2S,5R)-5-amino-2-methylpiperidin-1-yl)(2-(1-(cyclopropylmethyl)-6-(2-(pyrrolidin-1-yl)pyridin-3-yl)-1H-pyrrolo[2,3-b]pyridin-2-yl)-7-methoxy-1-methyl-1-benzo[d]imidazol-5-yl)methanone]
	74.3	COc1cc(C(=O)N2C[C@H](N)[C@@H]3CC[C@H]2C3)cc2nc(-c3cc4ccc([C@@H](C)NC(=O)C56C7C8C9C7C5C9C86)nc4n3CC3CC3)n(C)c12 (stereo partly drawn) [Example 299, N-((R)-1-(2-(5-((1S,4R,5R)-4-amino-2-azabicyclo[3.2.1]octane-2-carbonyl)-7-methoxy-1-methyl-1H-benzo[d]imidazol-2-yl)-1-(cyclopropylmethyl)-1H-pyrrolo[2,3-b]pyridin-6-yl)ethyl)cubane-1-carboxamide]
	106	COC(=O)N(C)c1ccc2cc(-c3nc4cc(C(=O)N5C[C@H](N)[C@@H]6CC[C@H]5C6)cc(OC)c4n3C)n(CC3CC3)c2n1 [Example 287, methyl (2-(5-((1S,4R,5R)-4-amino-2-azabicyclo[3.2.1]octane-2-carbonyl)-7-methoxy-1-methyl-1H-benzo[d]imidazol-2-yl)-1-(cyclopropylmethyl)-1H-pyrrolo[2,3-b]pyridin-6-yl)(methyl)carbamate]
	70.8	COc1cc(C(=O)N2C[C@H](N)[C@@H]3CC[C@H]2C3)cc2nc(-c3cc4ccc([C@@H](C)NC(=O)[C@@H]5C[C@H]5F)nc4n3CC3CC3)n(C)c12 [Example 288, (1S,2R)-N-((R)-1-(2-(5-((1S,4R,5R)-4-amino-2-azabicyclo[3.2.1]octane-2-carbonyl)-7-methoxy-1-methyl-1H-benzo[d]imidazol-2-yl)-1-(cyclopropylmethyl)-1H-pyrrolo[2,3-b]pyridin-6-yl)ethyl)-2-fluorocyclopropane-1-carboxamide]
59.5		COc1cc(C(=O)N2CCC[C@@H](N)C2)cc2nc(-c3cc4ccc(N(C(C)C)S(C)(=O)=O)nc4n3CC3CC3)n(C)c12 [Example 6, (R)-N-(2-(5-(3-aminopiperidine-1-carbonyl)-7-methoxy-1-methyl-1H-benzo[d]imidazol-2-yl)-1-(cyclopropylmethyl)-1H-pyrrolo [2,3-b]pyridin-6-yl)-N-isopropylmethanesulfonamide]
	72	COc1cc(C(=O)N2C[C@H](N)[C@@H]3CC[C@H]2C3)cc2nc(-c3cc4ccc([C@@H](C)NC(=O)c5ccc(C(C)(C)O)nc5)nc4n3CC3CC3)n(C)c12 [Example 300, N-((R)-1-(2-(5-((1S,4R,5R)-4-amino-2-azabicyclo[3.2.1]octane-2-carbonyl)-7-methoxy-1-methyl-1H-benzo[d]imidazol-2-yl)-1-(cyclopropylmethyl)-1H-pyrrolo[2,3-b]pyridin-6-yl)ethyl)-6-(2-hydroxypropan-2-yl)nicotinamide]
80.4		COc1cc(C(=O)N2C[C@H](N)CCN2C)cc2nc(-c3cc4ccc([C@@H](C)NC(=O)c5c(C)ccnc5C)nc4n3CC3CC3)n(C)c12 [Example 178, N-((R)-1-(2-(5-((R)-5-amino-2-methylhexahydropyridazine-1-carbonyl)-7-methoxy-1-methyl-1H-benzo[d]imidazol-2-yl)-1-(cyclopropylmethyl)-1H-pyrrolo[2,3-b]pyridin-6-yl)ethyl)-2,4-dimethylnicotinamide]
50000		COc1cc(C(=O)N[C@@H]2CNC[C@H]2NC(=O)CCCN(C)C)cc2nc(-c3cc4ccc(N(C(F)F)S(C)(=O)=O)nc4n3CC3CC3)n(C)c12 [Example 83, 2-(1-(cyclopropylmethyl)-6-((N-(difluoromethyl)methyl)sulfonamido)-1H-pyrrolo[2,3-b]pyridin-2-yl)-N-((3R,4R)-4-(4-(dimethylamino)butanamido)pyrrolidin-3-yl)-7-methoxy-1-methyl-1H-benzo[d]imidazole-5-carboxamide]
797		COc1cc(C(=O)N2CCC[C@@H](N)C2)cc2nc(-c3cc4ccc(S(C)(=O)=O)nc4n3CC3CC3)n(C)c12 [Example 253, (R)-(3-aminopiperidin-1-yl)(2-(1-(cyclopropylmethyl)-6-(methylsulfonyl)-1H-pyrrolo[2,3-b]pyridin-2-yl)-7-methoxy-1-methyl-1H-benzo[d]imidazol-5-yl)methanone]
28.8		COc1cc(C(=O)N2C[C@H](N)CCN2C)cc2nc(-c3cc4ccc([C@@H](C)NC(=O)c5ncccn5)nc4n3CC3CC3)n(C)c12 [Example 180, N-((R)-1-(2-(5-((R)-5-amino-2-methylhexahydropyridazine-1-carbonyl)-7-methoxy-1-methyl-1H-benzo[d]imidazol-2-yl)-1-(cyclopropylmethyl)-1H-pyrrolo[2,3-b]pyridin-6-yl)ethyl)pyrimidine-2-carboxamide]

Structure (SMILES)	IC50 [1] [nM]	IC50 [2] [nM]
CS(=O)(=O)N(c1ccc2cc(-c3nc4cc(C(=O)N5[C@@H]6CC[C@@H](N)[C@H]5CC6)ccc4n3C3CC3)n(CC3CC3)c2n1)C(F)F [Example 56, N-(2-(5-((1R,2R,5R)-2-amino-8-azabicyclo[3.2.1]octane-8-carbonyl)-1-cyclopropyl-1H-benzo[d]imidazol-2-yl)-1-(cyclopropylmethyl)-1H-pyrrolo[2,3-b]pyridin-6-yl)-N-(difluoromethyl) methanesulfonamide]	36.2	
COc1cc(C(=O)N2[C@H]3CC[C@@H]2[C@H](N)C3)cc2nc(-c3cc4ccc([C@@H](C)NC(=O)c5cnn(C(F)F)c5)nc4n3CC3CC3)n(C)c12 [Example 205, N-((R)-1-(2-(5-((1R,2R,4S)-2-amino-7-azabicyclo[2.2.1]heptane-7-carbonyl)-7-methoxy-1-methyl-1H-benzo[d]imidazol-2-yl)-1-(cyclopropylmethyl)-1H-pyrrolo[2,3-b]pyridin-6-yl)ethyl)-1-(difluoromethyl)-1H-pyrazole-4-carboxamide]	79.7	
COc1cc(C(=O)N2[C@H]3CC[C@@H]2[C@H](N)C3)cc2nc(-c3cc4ccc([C@@H](C)NC(=O)c5cnn(C)c5)nc4n3CC3CC3)n(C)c12 [Example 206, N-((R)-1-(2-(5-((1R,2R,4S)-2-amino-7-azabicyclo[2.2.1]heptane-7-carbonyl)-7-methoxy-1-methyl-1H-benzo[d]imidazol-2-yl)-1-(cyclopropylmethyl)-1H-pyrrolo[2,3-b]pyridin-6-yl)ethyl)-1-methyl-1H-pyrazole-4-carboxamide]	45.5	
COc1cc(C(=O)N2[C@H]3CC[C@@H]2[C@H](N)C3)cc2nc(-c3cc4ccc([C@@H](C)NC(=O)C5(OC)CC5)cc4n3CC3CC3)n(C3CC3)c12 [Example 147, N-((R)-1-(2-(5-((1R,2R,4S)-2-amino-7-azabicyclo[2.2.1]heptane-7-carbonyl)-1-cyclopropyl-7-methoxy-1H-benzo[d]imidazol-2-yl)-1-(cyclopropylmethyl)-1H-indol-6-yl)ethyl)-1-methoxycyclopropane-1-carboxamide]	78.9	
COc1cc(C(=O)N2[C@H]3CC[C@@H]2[C@H](N)C3)cc2nc(-c3cc4ccc([C@@H](C)NC(=O)C(C)n5cccn5)nc4n3CC3CC3)n(C)c12 (stereo partly drawn) [Example 211, N-((R)-1-(2-(5-((1R,2R,4S)-2-amino-7-azabicyclo[2.2.1]heptane-7-carbonyl)-7-methoxy-1-methyl-1H-benzo[d]imidazol-2-yl)-1-(cyclopropylmethyl)-1H-pyrrolo[2,3-b]pyridin-6-yl)ethyl)-2-(1H-pyrazol-1-yl)propanamide]	92	

Source: patent publication US11878965B2, “Inhibitors of peptidylarginine deiminases” (Gilead Sciences, Inc., priority 2020, dated 2024)
